Test results taken from EP4667483A1, “HUMAN TRANSFERRIN RECEPTOR-BINDING PEPTIDE” (JCR Pharmaceuticals Co., Ltd., priority 2023, dated 2024).
pKd: −log10 of the molar value. Numbered stars: 1 amine (or outer) side, 2 acyl side, 3 side chain; on linkers, the order of the positions; unused ones are H or OH. Bridge positions count the residues as written; N and C are the ends. Square brackets hold non-standard residues; d marks the D form. Peptide text beside a SMILES is read from it. * marks the point of attachment. Ala(imidazo(1,2-a)pyr3yl) = N[C@@H](Cc1cnc2ccccn12)C(=O)O; Trp(1-CH2COOH) = N[C@@H](Cc1cn(CC(=O)O)c2ccccc12)C(=O)O; Nle(6-morpholino) = N[C@@H](CCCCN1CCOCC1)C(=O)O; Phe(3-COOH) = N[C@@H](Cc1cccc(C(=O)O)c1)C(=O)O; NMePhe(3-OMe) = CN[C@@H](Cc1cccc(OC)c1)C(=O)O; Trp(7-aza) = N[C@@H](Cc1c[nH]c2ncccc12)C(=O)O; NMePhe(3-Cl) = CN[C@@H](Cc1cccc(Cl)c1)C(=O)O; 3Pal(6-NH2) = Nc1ccc(C[C@H](N)C(=O)O)cn1; X3 = Cc1ccc(C[C@H](N[*:1])C(=O)[*:2])cn1; Lys(N3) = [N-]=[N+]=NCCCC[C@H](N)C(=O)O; Tyr(3-Me) = Cc1cc(C[C@H](N)C(=O)O)ccc1O; NMe4Pal = CN[C@@H](Cc1ccncc1)C(=O)O; NMeY = CN[C@@H](Cc1ccc(O)cc1)C(=O)O; Nva(3-Et) = CCC(CC)[C@H](N)C(=O)O; 4Pal = N[C@@H](Cc1ccncc1)C(=O)O; PEG4 = NCCOCCOCCOCCOCCC(=O)O; Carboxymethyl = O=C(O)C*

Assays:
[1] = target: T1, human transferrin receptor (hTfR) (Homo sapiens, UniProt P02786); assay: SPR measurement under pH 7.4 conditions (Biacore T200, CM3 chip, hTfR captured by His Tag antibody); assay type: binding; details: read-out: hTfR SPR pH7.4 KD
[2] = target: T1, human transferrin receptor (hTfR); assay: SPR measurement under pH 6.0 conditions (Biacore T200, NTA chip, immobilized hTfR); assay type: binding; details: read-out: hTfR SPR pH6.0 KD
[3] = SPR, pH 7.4, peptide with the linker named in the table
[4] = SPR, pH 6.0, peptide with the linker named in the table

T1 sequence (P02786 whole entry): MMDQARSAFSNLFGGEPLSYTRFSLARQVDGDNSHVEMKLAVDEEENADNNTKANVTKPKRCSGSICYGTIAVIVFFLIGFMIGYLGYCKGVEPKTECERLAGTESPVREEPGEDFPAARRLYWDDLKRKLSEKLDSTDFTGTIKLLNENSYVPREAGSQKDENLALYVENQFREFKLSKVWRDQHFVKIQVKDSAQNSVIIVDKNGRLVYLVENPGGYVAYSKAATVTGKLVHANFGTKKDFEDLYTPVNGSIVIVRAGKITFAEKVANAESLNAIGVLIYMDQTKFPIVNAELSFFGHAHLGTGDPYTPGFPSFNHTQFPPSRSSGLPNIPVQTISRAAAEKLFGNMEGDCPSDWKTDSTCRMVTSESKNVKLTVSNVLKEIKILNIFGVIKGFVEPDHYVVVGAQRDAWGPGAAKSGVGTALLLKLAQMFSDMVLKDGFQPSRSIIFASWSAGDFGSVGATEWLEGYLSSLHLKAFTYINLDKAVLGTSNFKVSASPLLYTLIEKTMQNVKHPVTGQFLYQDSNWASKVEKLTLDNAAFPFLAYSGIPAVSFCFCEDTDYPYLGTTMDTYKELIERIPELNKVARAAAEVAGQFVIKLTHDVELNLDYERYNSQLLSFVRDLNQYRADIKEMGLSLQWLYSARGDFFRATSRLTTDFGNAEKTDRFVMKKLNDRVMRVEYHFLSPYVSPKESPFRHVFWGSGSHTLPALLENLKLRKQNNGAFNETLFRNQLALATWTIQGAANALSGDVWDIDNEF

Row | SMILES | pKd ([1]; pH 7.4, single-cycle kinetics) | pKd ([2]; pH 6.0, single-cycle kinetics) | pKd [1, 3] | pKd [2, 4]
1 | CC[C@H](C)[C@@H]1NC(=O)[C@H](Cc2ccc(OCC(=O)O)cc2)NC(=O)[C@H](Cc2ccc(O)cc2)NC(=O)[C@H](CC(N)=O)NC(=O)[C@H](Cc2c[nH]c3ncccc23)NC(=O)[C@H](C(C)C)NC(=O)[C@H](Cc2cccc(Cl)c2)N(C)C(=O)[C@H](C(C)C)NC(=O)[C@H](C)NC(=O)CSC[C@@H](C(=O)NCCOCCOCCOCCOCCC(N)=O)NC(=O)[C@H](Cc2ccc(O)cc2)N(C)C(=O)[C@H](Cc2ccncc2)NC(=O)[C@H](CCCNC(=N)N)NC(=O)[C@H](CCC(=O)NCCOCCOCCOCCOCCOCCOCCOCCOCCC(=O)O)NC(=O)[C@H]([C@@H](C)CC)NC1=O [compound 62] | 7.55 | 7.04 | – | –
2 | CC[C@H](C)[C@@H]1NC(=O)[C@H](Cc2ccc(OCC(=O)O)cc2)NC(=O)[C@H](Cc2ccc(O)cc2)NC(=O)[C@H](CC(N)=O)NC(=O)[C@H](Cc2c[nH]c3ncccc23)NC(=O)[C@H](C(C)C)NC(=O)[C@H](Cc2cccc(Cl)c2)N(C)C(=O)[C@H](C(C)C)NC(=O)[C@H](C)NC(=O)CSC[C@@H](C(=O)NCCOCCOCCOCCOCCC(N)=O)NC(=O)[C@H](Cc2ccc(O)cc2)N(C)C(=O)[C@H](Cc2ccncc2)NC(=O)[C@H](CCCNC(=N)N)NC(=O)[C@H](CCC(=O)NCCOCCOCCOCCOCCC(=O)O)NC(=O)[C@H]([C@@H](C)CC)NC1=O [compound 63] | 7.63 | 7.06 | – | –
3 | CC[C@H](C)[C@@H]1NC(=O)[C@H](Cc2ccc(OC)cc2)NC(=O)[C@H](Cc2ccc(N)nc2)NC(=O)[C@H](CC(N)=O)NC(=O)[C@H](Cc2cnc3ccccn23)NC(=O)[C@H](C(C)C)NC(=O)[C@H](Cc2cccc(Cl)c2)N(C)C(=O)[C@H](C(C)C)NC(=O)[C@H](C)NC(=O)CSC[C@@H](C(=O)NCCOCCOCCOCCOCCC(N)=O)NC(=O)[C@H](Cc2ccc(O)cc2)N(C)C(=O)[C@H](Cc2ccncc2)NC(=O)[C@H](CCCNC(=N)N)NC(=O)[C@H](CCCNC(=N)N)NC(=O)[C@H]([C@@H](C)CC)NC1=O [compound 65] ({CH2CO}-AV[NMePhe(3-Cl)]V[Ala(imidazo(1,2-a)pyr3yl)]N[3Pal(6-NH2)]Y(Me)IIRR[4Pal][NMeY]C[PEG4]-NH2; thioether N-15) | 8.27 | 7.25 | – | –
4 | CC[C@H](C)[C@@H]1NC(=O)[C@H](Cc2ccc(OC)cc2)NC(=O)[C@H](Cc2ccc(N)nc2)NC(=O)[C@H](CC(N)=O)NC(=O)[C@H](Cc2c[nH]c3ncccc23)NC(=O)[C@H](C(C)C)NC(=O)[C@H](Cc2cccc(Cl)c2)N(C)C(=O)[C@H](C(C)C)NC(=O)[C@H](C)NC(=O)CSC[C@@H](C(=O)NCC(=O)N[C@@H](CCCCN=[N+]=[N-])C(N)=O)NC(=O)[C@H](Cc2ccc(O)cc2)N(C)C(=O)[C@H](Cc2ccncc2)NC(=O)[C@H](CCCNC(=N)N)NC(=O)[C@H](CCCNC(=N)N)NC(=O)[C@H]([C@@H](C)CC)NC1=O [compound 66] | 8.64 | 7.79 | – | –
5 | CCC(CC)[C@@H]1NC(=O)[C@H](Cc2ccc(OCC(=O)O)cc2)NC(=O)[C@H](Cc2ccc(O)cc2)NC(=O)[C@H](CC(N)=O)NC(=O)[C@H](Cc2cnc3ccccn23)NC(=O)[C@H](C(C)C)NC(=O)[C@H](Cc2cccc(Cl)c2)N(C)C(=O)[C@H](C(C)C)NC(=O)[C@H](C)NC(=O)CSC[C@@H](C(=O)NCC(=O)N[C@@H](CCCCN=[N+]=[N-])C(N)=O)NC(=O)[C@H](Cc2ccc(O)cc2)N(C)C(=O)[C@H](Cc2cccc(C(=O)O)c2)NC(=O)[C@H](CCCNC(=N)N)NC(=O)[C@H](CCC(N)=O)NC(=O)[C@H]([C@@H](C)CC)NC1=O [compound 67] ({CH2CO}-AV[NMePhe(3-Cl)]V[Ala(imidazo(1,2-a)pyr3yl)]NYY(Carboxymethyl)[Nva(3-Et)]IQR[Phe(3-COOH)][NMeY]CG[Lys(N3)]-NH2; thioether N-15) | 7.67 | 6.35 | – | –
6 | CC[C@H](C)[C@@H]1NC(=O)[C@H](Cc2ccc(OC)cc2)NC(=O)[C@H](Cc2ccc(N)nc2)NC(=O)[C@H](CC(N)=O)NC(=O)[C@H](Cc2c[nH]c3ncccc23)NC(=O)[C@H](C(C)C)NC(=O)[C@H](Cc2cccc(Cl)c2)N(C)C(=O)[C@H](C(C)C)NC(=O)[C@H](C)NC(=O)CSC[C@@H](C(=O)NCC(=O)N[C@@H](CCCCN=[N+]=[N-])C(N)=O)NC(=O)[C@H](Cc2ccc(O)cc2)N(C)C(=O)[C@H](Cc2ccncc2)NC(=O)[C@H](CCCCN2CCOCC2)NC(=O)[C@H](CCCCN2CCOCC2)NC(=O)[C@H]([C@@H](C)CC)NC1=O [compound 68] ({CH2CO}-AV[NMePhe(3-Cl)]V[Trp(7-aza)]N[3Pal(6-NH2)]Y(Me)II[Nle(6-morpholino)][Nle(6-morpholino)][4Pal][NMeY]CG[Lys(N3)]-NH2; thioether N-15) | 8.69 | 7.91 | – | –
7 | CCC(CC)[C@@H]1NC(=O)[C@H](Cc2ccc(OCC(=O)O)cc2)NC(=O)[C@H](Cc2ccc(O)cc2)NC(=O)[C@H](CC(N)=O)NC(=O)[C@H](Cc2cn(CC(=O)O)c3ccccc23)NC(=O)[C@H](C(C)C)NC(=O)[C@H](Cc2cccc(Cl)c2)N(C)C(=O)[C@H](C(C)C)NC(=O)[C@H](C)NC(=O)CSC[C@@H](C(=O)NCCOCCOCCOCCOCCC(N)=O)NC(=O)[C@H](Cc2cccc(Cl)c2)N(C)C(=O)[C@H](Cc2cccc(C(=O)O)c2)NC(=O)[C@H](CCCNC(=N)N)NC(=O)[C@H](CCC(N)=O)NC(=O)[C@H]([C@@H](C)CC)NC1=O [compound 94] ({CH2CO}-AV[NMePhe(3-Cl)]V[Trp(1-CH2COOH)]NYY(Carboxymethyl)[Nva(3-Et)]IQR[Phe(3-COOH)][NMePhe(3-Cl)]C[PEG4]-NH2; thioether N-15) | – | – | 7.92 | 7.21
8 | CCC(CC)[C@@H]1NC(=O)[C@H](Cc2ccc(OCC(=O)O)cc2)NC(=O)[C@H](Cc2ccc(O)cc2)NC(=O)[C@H](CC(N)=O)NC(=O)[C@H](Cc2cn(CC(=O)O)c3ccccc23)NC(=O)[C@H](C(C)C)NC(=O)[C@H](Cc2cccc(Cl)c2)N(C)C(=O)[C@H](C(C)C)NC(=O)[C@H](C)NC(=O)CSC[C@@H](C(=O)NCCOCCOCCOCCOCCC(N)=O)NC(=O)[C@H](Cc2cccc(OC)c2)N(C)C(=O)[C@H](Cc2cccc(C(=O)O)c2)NC(=O)[C@H](CCCNC(=N)N)NC(=O)[C@H](CCC(N)=O)NC(=O)[C@H]([C@@H](C)CC)NC1=O [compound 95] ({CH2CO}-AV[NMePhe(3-Cl)]V[Trp(1-CH2COOH)]NYY(Carboxymethyl)[Nva(3-Et)]IQR[Phe(3-COOH)][NMePhe(3-OMe)]C[PEG4]-NH2; thioether N-15) | – | – | 7.97 | 7.17
9 | CCC(CC)[C@@H]1NC(=O)[C@H](Cc2ccc(OCC(=O)O)cc2)NC(=O)[C@H](Cc2ccc(O)cc2)NC(=O)[C@H](CC(N)=O)NC(=O)[C@H](Cc2cn(CC(=O)O)c3ccccc23)NC(=O)[C@H](C(C)C)NC(=O)[C@H](Cc2cccc(Cl)c2)N(C)C(=O)[C@H](C(C)C)NC(=O)[C@H](C)NC(=O)CSC[C@@H](C(=O)NCCOCCOCCOCCOCCC(N)=O)NC(=O)[C@H](Cc2ccncc2)N(C)C(=O)[C@H](Cc2cccc(C(=O)O)c2)NC(=O)[C@H](CCCNC(=N)N)NC(=O)[C@H](CCC(N)=O)NC(=O)[C@H]([C@@H](C)CC)NC1=O [compound 96] ({CH2CO}-AV[NMePhe(3-Cl)]V[Trp(1-CH2COOH)]NYY(Carboxymethyl)[Nva(3-Et)]IQR[Phe(3-COOH)][NMe4Pal]C[PEG4]-NH2; thioether N-15) | – | – | 7.74 | 7.04
10 | CCC(CC)[C@@H]1NC(=O)[C@H](Cc2ccc(OCC(=O)O)cc2)NC(=O)[C@H](Cc2ccc(O)cc2)NC(=O)[C@H](CC(N)=O)NC(=O)[C@H](Cc2cn(CC(=O)O)c3ccccc23)NC(=O)[C@H](C(C)C)NC(=O)[C@H](Cc2cccc(Cl)c2)N(C)C(=O)[C@H](C(C)C)NC(=O)[C@H](C)NC(=O)CSC[C@@H](C(=O)NCCOCCOCCOCCOCCC(N)=O)NC(=O)[C@H](Cc2ccc(O)cc2)N(C)C(=O)[C@H](Cc2cccc(C(=O)O)c2)NC(=O)[C@H](Cc2c[nH]cn2)NC(=O)[C@H](CCC(N)=O)NC(=O)[C@H]([C@@H](C)CC)NC1=O [compound 98] ({CH2CO}-AV[NMePhe(3-Cl)]V[Trp(1-CH2COOH)]NYY(Carboxymethyl)[Nva(3-Et)]IQH[Phe(3-COOH)][NMeY]C[PEG4]-NH2; thioether N-15) | – | – | 7.69 | 6.84
11 | CCC(CC)[C@@H]1NC(=O)[C@H](Cc2ccc(OCC(=O)O)cc2)NC(=O)[C@H](Cc2ccc(O)cc2)NC(=O)[C@H](CC(N)=O)NC(=O)[C@H](Cc2cn(CC(=O)O)c3ccccc23)NC(=O)[C@H](C(C)C)NC(=O)[C@H](Cc2cccc(Cl)c2)N(C)C(=O)[C@H](C(C)C)NC(=O)[C@H](C)NC(=O)CSC[C@@H](C(=O)NCCOCCOCCOCCOCCC(N)=O)NC(=O)[C@H](Cc2ccc(O)cc2)N(C)C(=O)[C@H](Cc2ccc(O)c(C)c2)NC(=O)[C@H](CCCNC(=N)N)NC(=O)[C@H](CCC(N)=O)NC(=O)[C@H]([C@@H](C)CC)NC1=O [compound 99] ({CH2CO}-AV[NMePhe(3-Cl)]V[Trp(1-CH2COOH)]NYY(Carboxymethyl)[Nva(3-Et)]IQR[Tyr(3-Me)][NMeY]C[PEG4]-NH2; thioether N-15) | – | – | 8.04 | 7.25
12 | CCC(CC)[C@@H]1NC(=O)[C@H](Cc2ccc(OCC(=O)O)cc2)NC(=O)[C@H](Cc2ccc(O)cc2)NC(=O)[C@H](CC(N)=O)NC(=O)[C@H](Cc2cn(CC(=O)O)c3ccccc23)NC(=O)[C@H](C(C)C)NC(=O)[C@H](Cc2cccc(Cl)c2)N(C)C(=O)[C@H](C(C)C)NC(=O)[C@H](C)NC(=O)CSC[C@@H](C(=O)NCCOCCOCCOCCOCCC(N)=O)NC(=O)[C@H](Cc2ccc(O)cc2)N(C)C(=O)[C@H](Cc2ccc(C)nc2)NC(=O)[C@H](CCCNC(=N)N)NC(=O)[C@H](CCC(N)=O)NC(=O)[C@H]([C@@H](C)CC)NC1=O [compound 100] ({CH2CO}-AV[NMePhe(3-Cl)]V[Trp(1-CH2COOH)]NYY(Carboxymethyl)[Nva(3-Et)]IQR[X3][NMeY]C[PEG4]-NH2; thioether N-15) | – | – | 7.90 | 6.95
